Read-outs that look alike come from different tables or passages of the source.
Legend:
[1] = system: LdBOB axenic amastigote-like cells; test: Novel (cidal) axenic amastigote assay, BacTiter-Glo read-out; type: cell-based, Leishmania donovani
From the text: Leishmania donovani BOB cells (LdBOB) used in this study are a cloned line from strain MHOM/SD/62/1S-CL2 [13]. Cultures were maintained as described previously. Compounds were dispensed into 384-well assay plates by acoustic dispensing (LabCyte ECHO). […] Potencies are reported as pEC50 (-LOG(EC50[M])). All data was processed using IDBS ActivityBase. […] For compounds with low activity and poor definition of the curve top, B was fixed to 100. For the determination of the reference compound panel potency, all experiments were carried out with a minimum of three independent repeats. Test compounds were pre-dispensed into white 384 well plates (Corning). For library screens one compound per well was tested at the indicated final concentration. […] DMSO, zero percent effect control: cells at starting concentration. The zero percent effect control wells are left empty during the course of the assay. […] The assay volume is 25 μl / well. […] Plates were then sealed with clear film and relative luminescence was detected using a plate reader (Victor 3) from Perkin Elmer or PHERAstar FS from BMG LABTECH, with 0.5 s detection time per well).

HepG2 cells = test: HepG2 assay (mammalian counterscreen, resazurin); type: cell-based, human; settings: for EC50: Homo sapiens, read-out: HepG2 (potency, pEC50) (converted)
Description: Compounds were dispensed into 384-well assay plates by acoustic dispensing (LabCyte ECHO). […] Potencies are reported as pEC50 (-LOG(EC50[M])). All data was processed using IDBS ActivityBase. […] For compounds with low activity and poor definition of the curve top, B was fixed to 100. For the determination of the reference compound panel potency, all experiments were carried out with a minimum of three independent repeats. The assay conditions are described previously.

[2] = system: eGFP expressing LdBOB amastigote-like cells in PMA differentiated THP-1 cells; test: Intramacrophage (intracellular, INMAC) assay; type: cell-based, Leishmania donovani; settings: for EC50: Leishmania donovani
Description: (§1) Compounds were dispensed into 384-well assay plates by acoustic dispensing (LabCyte ECHO). […] Potencies are reported as pEC50 (-LOG(EC50[M])).
(§2) All data was processed using IDBS ActivityBase. […] Potency plates were normalised to DMSO control (0% effect) and 2μM amphotericin B control (100% effect). […] For compounds with low activity and poor definition of the curve top, B was fixed to 100. For the determination of the reference compound panel potency, all experiments were carried out with a minimum of three independent repeats.
(§3) The assay conditions are described previously. Briefly PMA differentiated THP-1 cells were infected overnight with eGFP expressing LdBOB amastigote-like cells at a multiplicity of infection of 5. Next, any remaining free amastigote-like cells are removed and compounds are added. The microscopy-based read-out is done after a four day compound incubation.

THP-1 cells = test: THP-1 host cell toxicity in the intramacrophage assay; type: cell-based, human; settings: for EC50: Homo sapiens
Description: as §1, §2, §3

[3] = Leishmania donovani; read-out: Novel (axenic assay potency, pEC50) (converted)
[4] = HepG2, reference compound panel, mean (standard deviation), 72 h
[5] = THP-1, 96 h, reference compound panel, mean (standard deviation), minimum three independent repeats, four day incubation, read-out: Intramacrophage (potency, pEC50) (converted)
[6] = THP-1, reference compound panel, mean (standard deviation), host cell toxicity, read-out: THP-1 (potency, pEC50) (converted)
[7] = Leishmania donovani; DOS library compounds, ten-point dose response; read-out: cAX pEC50 (converted)
[8] = THP-1, DOS library compounds, dose response, read-out: INMAC (intracellular) pEC50 (converted)
[9] = THP-1, DOS library compounds, dose response, read-out: THP1 pEC50 (converted)
[10] = single concentration screen at 25 μM
[11] = THP-1, 96 h, read-out: Intramacrophage (potency, pEC50) (converted)

SMILES | EC50 [1, 3] | EC50 (HepG2 cells; [4]) | EC50 [2, 5] | EC50 (THP-1 cells; [6]) | EC50 [2, 8] | other results
NCCCC(O)(P(=O)(O)O)P(=O)(O)O [Alendronic acid] | > 50.1 µM | > 50.1 µM | > 34.7 µM | > 34.7 µM |  | 
CCN(CC)Cc1cc(Nc2ccnc3cc(Cl)ccc23)ccc1O [Amodiaquine] | > 50.1 µM | 25.7 µM | 4.07 µM | 29.5 µM |  | activity in words (intracellular versus novel axenic) ([2]; reference compound panel): only active in the intracellular assay
C[C@@H]1[C@H](O)[C@@H](C)/C=C/C=C/C=C/C=C/C=C/C=C/C=C/[C@H](O[C@@H]2O[C@H](C)[C@@H](O)[C@H](N)[C@@H]2O)C[C@@H]2O[C@](O)(C[C@@H](O)C[C@@H](O)[C@H](O)CC[C@@H](O)C[C@@H](O)CC(=O)O[C@H]1C)C[C@H](O)[C@H]2C(=O)O [Amphotericin B] | 0.302 µM | > 50.1 µM | 0.24 µM | 26.9 µM |  | EC50 ([1]; Leishmania donovani; control on each plate, run to run over extended time period; ± StDev; read-out: average pEC50 of plate control (converted)): 0.126 µM
CCCNC(=O)N1[C@H](C#N)[C@H](c2ccc(C#Cc3cccc(F)c3)cc2)[C@@H]1CO [BRD0645] |  |  |  |  | 3.98 µM | EC50 [1, 7]: 0.794 µM; EC50 (THP-1 cells; [9]): > 50.1 µM
CCCNC(=O)N1[C@H](C#N)[C@H](c2ccc(C#Cc3ccc(F)cc3)cc2)[C@@H]1CO [BRD1184] |  |  |  |  | 2 µM | EC50 [1, 7]: 0.631 µM; EC50 (THP-1 cells; [9]): 15.8 µM
CCCNC(=O)N1[C@H](C#N)[C@@H](c2ccccc2-c2ccc(OC)cc2)[C@@H]1CO [BRD2647 RRS stereoisomer] |  |  |  |  | 39.8 µM | 
CCCNC(=O)N1[C@H](CO)[C@H](c2ccccc2-c2ccc(OC)cc2)[C@@H]1C#N [BRD2647 SRR stereoisomer] |  |  |  |  |  | activity in the initial HTS assay [1, 10]: inactive
CCCNC(=O)N1[C@H](CO)[C@@H](c2ccccc2-c2ccc(OC)cc2)[C@@H]1C#N [BRD2647 SSR stereoisomer] |  |  |  |  |  | activity in the initial HTS assay [1, 10]: inactive
CCCNC(=O)N1[C@H](C#N)[C@H](c2ccccc2-c2ccc(OC)cc2)[C@@H]1CO [BRD2647] |  |  |  |  | 6.31 µM | EC50 [1, 7]: 1.58 µM; EC50 (THP-1 cells; [9]): > 50.1 µM
COc1ccc(-c2ccccc2[C@H]2[C@@H](C#N)N(C(=O)NC(C)C)[C@H]2CO)cc1 [BRD3029] |  |  |  |  | 12.6 µM | EC50 [1, 7]: 1.58 µM; EC50 (THP-1 cells; [9]): > 50.1 µM
CC(C)NC(=O)N1[C@H](C#N)[C@H](c2ccc(-c3ccc(F)cc3)cc2)[C@@H]1CO [BRD3486] |  |  |  |  | 6.31 µM | EC50 [1, 7]: 2 µM; EC50 (THP-1 cells; [9]): 10 µM
CCCNC(=O)N1[C@H](C#N)[C@H](c2ccccc2-c2ccc(C)cc2)[C@@H]1CO [BRD4332] |  |  |  |  | 6.31 µM | EC50 [1, 7]: 0.631 µM; EC50 (THP-1 cells; [9]): > 50.1 µM
CCCNC(=O)N1[C@H](C#N)[C@H](c2ccc(C3=CCCCC3)cc2)[C@@H]1CO [BRD5744] |  |  |  |  | 2 µM | EC50 [1, 7]: 0.794 µM; EC50 (THP-1 cells; [9]): > 50.1 µM
CCCNC(=O)N1[C@@H](C#N)[C@@H](c2ccc(-c3cccc(OC)c3)cc2)[C@@H]1CO [BRD6650 RRR stereoisomer] |  |  |  |  | 50.1 µM | 
CCCNC(=O)N1[C@H](C#N)[C@@H](c2ccc(-c3cccc(OC)c3)cc2)[C@@H]1CO [BRD6650 RRS stereoisomer] |  |  |  |  | 15.8 µM | 
CCCNC(=O)N1[C@H](CO)[C@H](c2ccc(-c3cccc(OC)c3)cc2)[C@@H]1C#N [BRD6650 SRR stereoisomer] |  |  |  |  | 31.6 µM | 
CCCNC(=O)N1[C@H](C#N)[C@@H](c2ccc(-c3cccc(OC)c3)cc2)[C@H]1CO [BRD6650 SRS stereoisomer] |  |  |  |  | 20 µM | 
CCCNC(=O)N1[C@H](CO)[C@@H](c2ccc(-c3cccc(OC)c3)cc2)[C@@H]1C#N [BRD6650 SSR stereoisomer] |  |  |  |  | 10 µM | 
CCCNC(=O)N1[C@H](C#N)[C@H](c2ccc(-c3cccc(OC)c3)cc2)[C@H]1CO [BRD6650 SSS stereoisomer] |  |  |  |  | 20 µM | 

SMILES | EC50 [1, 3] | EC50 (HepG2 cells; [4]) | EC50 [2, 5] | EC50 (THP-1 cells; [6]) | EC50 [2, 8] | other results
CCCNC(=O)N1[C@H](C#N)[C@H](c2ccc(-c3cccc(OC)c3)cc2)[C@@H]1CO [BRD6650] |  |  |  |  | 2 µM | EC50 [1, 7]: 0.501 µM; EC50 (THP-1 cells; [9]): > 50.1 µM
CCCNC(=O)N1[C@H](C#N)[C@H](c2ccc(-c3cccnc3)cc2)[C@@H]1CO [BRD9157] |  |  |  |  | 1.58 µM | EC50 [1, 7]: 12.6 µM; EC50 (THP-1 cells; [9]): > 50.1 µM
COc1ccc(-c2ccccc2[C@H]2[C@@H](C#N)N(C(=O)NC3CCCC3)[C@H]2CO)cc1 [BRD9613] |  |  |  |  | 10 µM | EC50 [1, 7]: 1.58 µM; EC50 (THP-1 cells; [9]): > 50.1 µM
COc1ccc2cc3[n+](cc2c1OC)CCc1cc2c(cc1-3)OCO2 [Berberine] | 9.33 µM | 33.9 µM | 16.2 µM | > 34.7 µM |  | 
C[C@@]12C(=O)OC(=O)[C@]1(C)[C@H]1CC[C@@H]2O1 [Cantharidin] |  |  |  |  |  | EC50 ([1]; Leishmania donovani, read-out: Novel (axenic assay potency, pEC50) (converted)): 4.37 µM; EC50 (HepG2 cells; HepG2, 72 h): 1.35 µM; EC50 [2, 11]: 13.2 µM; EC50 (THP-1 cells; THP-1, read-out: THP-1 (potency, pEC50) (converted)): 2.75 µM
N=C(N)c1ccc(/N=N/Nc2ccc(C(=N)N)cc2)cc1 [Diminazene] | 11.7 µM | > 50.1 µM | > 34.7 µM | > 34.7 µM |  | 
CC(=O)O[C@@]12CO[C@@H]1C[C@H](O)[C@@]1(C)C(=O)[C@H](O)C3=C(C)[C@@H](OC(=O)[C@H](O)[C@@H](NC(=O)OC(C)(C)C)c4ccccc4)C[C@@](O)([C@@H](OC(=O)c4ccccc4)[C@H]21)C3(C)C [Docetaxel] | 8.91 µM |  | 14.5 µM | > 34.7 µM |  | 
OC(c1ccc(Cl)cc1)(c1cncnc1)c1ccccc1Cl (stereo not drawn) [Fenarimol] | > 50.1 µM | > 50.1 µM | > 34.7 µM | > 34.7 µM |  | 
Cn1c([N+](=O)[O-])cnc1COc1ccc(S(C)(=O)=O)cc1 [Fexinidazole sulfone] | 7.76 µM | > 50.1 µM | 32.4 µM | > 34.7 µM |  | 
CSc1ccc(OCc2ncc([N+](=O)[O-])n2C)cc1 [Fexinidazole] | 11.5 µM | > 50.1 µM | > 34.7 µM | > 34.7 µM |  | 
CC(C)Cn1cnc2c(N)nc3ccccc3c21 [Imiquimod] | > 50.1 µM | > 50.1 µM |  | > 34.7 µM |  | EC50 [2, 11]: > 34.7 µM
CC(C)(C)NC(=O)[C@@H]1CN(Cc2cccnc2)CCN1C[C@@H](O)C[C@@H](Cc1ccccc1)C(=O)N[C@H]1c2ccccc2C[C@H]1O [Indinavir] | > 50.1 µM | > 50.1 µM | > 34.7 µM | > 34.7 µM |  | 
C=CC(C)(C)c1cc(/C=C/C(=O)c2ccc(O)cc2)c(OC)cc1O [Licochalcone A] |  |  |  |  |  | Novel (axenic assay potency, pEC50) ([1]; reference compound panel; mean (standard deviation), minimum three independent repeats; top concentration 50 μM; pEC50 = -LOG(EC50[M])): 4.67 (0.15); HepG2 (potency, pEC50) (HepG2 cells; reference compound panel, mean (standard deviation), 72 h): 4.44 (0.09); Intramacrophage (potency, pEC50) ([2]; reference compound panel, mean (standard deviation), minimum three independent repeats, four day incubation): 4.65 (0.17); THP-1 (potency, pEC50) (THP-1 cells; reference compound panel, mean (standard deviation), host cell toxicity): 4.46 (0.01)
O=c1cc(-c2ccc(O)c(O)c2)oc2cc(O)cc(O)c12 [Luteolin] | 46.8 µM | 24.5 µM | 28.2 µM | 14.5 µM |  | 
OC(c1cc(C(F)(F)F)nc2c(C(F)(F)F)cccc12)C1CCCCN1 (stereo not drawn) [Mefloquine] | > 50.1 µM | 9.77 µM | 8.51 µM | 12 µM |  | activity in words (intracellular versus novel axenic) ([2]; reference compound panel): only active in the intracellular assay
CC1=CC(=O)c2ccccc2C1=O [Menadione] | 10.2 µM | 3.47 µM | > 34.7 µM | 33.1 µM |  | 
CCCCCCCCCCCCCCCCOP(=O)([O-])OCC[N+](C)(C)C [Miltefosine] | 31.6 µM | > 50.1 µM | 0.794 µM | > 34.7 µM |  | potency difference, intracellular assay relative to novel axenic assay ([2]; more active in the intracellular assay): around ten-fold
CC1CS(=O)(=O)CCN1/N=C/c1ccc([N+](=O)[O-])o1 (stereo not drawn) [Nifurtimox] | 11.2 µM | > 50.1 µM | > 34.7 µM | > 34.7 µM |  | 
